# Measured values published in patent US20230146239A1 (THE SCRIPPS RESEARCH INSTITUTE, priority 2020, published 2023).
# Where two headings read alike, the source gives them in different places.
# Tests used:
# [1] = test system: VanA VRE, 4 strains; assay: Antimicrobial activity against VanA VRE panel (4 strains), summarised in text; format: cell-based, Enterococcus faecalis, Enterococcus faecium
# Source text: (§2) The lowest concentration of antibiotic (in μg/mL) capable of eliminating cell growth in the wells is the reported MIC value.
# [2] = test system: VanA VRE E. faecalis BM 4166 and E. faecium ATCC BAA-2317; settings: previously reported; C1-vancomycin even at 100 μM; cited from earlier work
# [3] = test system: VanA E. faecalis BM 4166 or ATCC BAA-2573; assay: microbe, parasite or virus in culture; format: cell-based; settings: Enterococcus faecalis, ATCCBAA2573, read-out: MIC, VanA E. faecalis
# Source text: as §2
# [4] = test system: VanA E. faecium (ATCC BAA-2317); assay: In vitro antimicrobial microdilution assay (MIC); format: cell-based, Enterococcus faecium
# Source text: as §2
# [5] = mice, cited from earlier work; for terminal half-life (t1/2): earlier studies; for AUC / CL / Cmax / Vd / t1/2 / tmax: iv, earlier study
# [6] = Mouse pharmacokinetics, iv; settings: 10 mg/kg
# Protocol: Plasma was obtained by centrifugation using a microcentrifuge fit with a hematocrit rotor, and obtained plasma was immediately frozen. The use of micro-sampling blood collection reduces the total blood taken from the mouse and allows a single mouse to be used for the entire time course, reducing inter-individual variability and maintaining the health of the mouse.
# Drug levels were determined by mass spectrometry using an ABSciex 5500 mass spectrometer using multiple reaction monitoring. […] All PK work was conducted in the Scripps Florida vivarium which is fully AAALAC accredited. Procedures were approved by the Scripps Florida IACUC, protocol number 15-022.
# [7] = mice, earlier studies; cited from earlier work
# [8] = test system: Sensitive S. aureus ATCC 25923; assay: In vitro antimicrobial microdilution assay (MIC); format: cell-based, Staphylococcus aureus
# Source text: as §2
# [9] = test system: VanA VRE E. faecalis BM 4166 and E. faecium ATCC BAA-2317; format: cell-based, Enterococcus faecalis, Enterococcus faecium; settings: 10 μM added at 5 minutes
# Protocol: The above bacterial solution was subjected to a subculture to obtain fresh mid-log phase bacterial cells (incubation time=6 hours). The bacterial suspension was diluted to a total volume of 7 mL with OD600=0.6.
# After the cultured bacteria were harvested (3000 rpm, 4° C., 20 minutes), the white bacterial precipitate was washed and resuspended in 5 mM glucose and 5 mM HEPES buffer (1:1, 5.00 mL, pH=7.2).
# [10] = test system: VanA VRSA strain VRS2 (S. aureus); settings: mouse, in vivo; cited from earlier work
# [11] = test system: VanA VRE E. faecalis (BM 4166); assay: Impact of added LTA, phosphate, POPE on antimicrobial activity (MIC); format: cell-based, Enterococcus faecalis; settings: for decrease of antimicrobial activity by added LTA: 100 μg/mL LTA, both VanA VRE strains
# Protocol: (§1) When NaH2PO4 or POPE was used instead of LTA, 10% brain-heart infusion broth containing 0.002% Tween®-80 with 100 μg/mL NaH2PO4 or 100 μg/mL POPE was used as the culture medium used for serial dilution. When additional G3 (H2N^+(CH2)3NHC(NH2)═NH2^+.2TFA) or Mg^2+ was used, 10% brain-heart infusion broth containing 0.002% Tween®-80 with 100 μg/mL G3 or 100 μg/mL MgCl2 and 100 μg/mL lipoteichoic acid was used as the culture medium for serial dilution of study group, 10% brain-heart infusion broth containing 0.002% Tween®-80 with 100 μg/mL G3 was used as the culture medium for serial dilution of control group.
# [12] = test system: MRSA S. aureus ATCC 43300; assay: microbe, parasite or virus in culture; format: cell-based, Staphylococcus aureus; settings: for MIC: Staphylococcus aureus, read-out: MIC, MRSA S. aureus ATCC 43300
# Source text: as §2
# [13] = test system: VanB E. faecalis ATCC 51299; assay: microbe, parasite or virus in culture; format: cell-based, Enterococcus faecalis; settings: for MIC: Enterococcus faecalis, ATCC51299, read-out: MIC, VanB E. faecalis ATCC 51299
# Source text: as §2
# [14] = test system: VanA VRE E. faecium (ATCC BAA2317); assay: organism not typed; format: cell-based, Enterococcus faecium
# Protocol: as §1
# [15] = test system: VanA E. faecium (TX2465); assay: In vitro antimicrobial microdilution assay (MIC); format: cell-based, Enterococcus faecium
# Source text: as §2
# [16] = test system: VanA E. faecalis (BM 4166); assay: In vitro antimicrobial microdilution assay (MIC); format: cell-based, Enterococcus faecalis
# Source text: as §2
# [17] = test system: VanA E. faecalis (ATCC BAA-2573); assay: In vitro antimicrobial microdilution assay (MIC); format: cell-based, Enterococcus faecalis
# Source text: as §2
# [18] = test system: VanA E. faecium (ATCC BAA-2317); settings: earlier trimethylammonium cation modified analogues; cited from earlier work
# [19] = test system: VanA E. faecalis (BM 4166); settings: earlier trimethylammonium cation modified analogues; cited from earlier work
# [20] = Enterococcus faecium, ATCCBAA2317, read-out: MIC, VanA E. faecium ATCC BAA-2317
# [21] = 10 mg/kg, listed as C1-CBP-vancomycin (4)
structure (smiles),measurement,setting,value
"CN[C@H](CC(C)C)C(=O)N[C@H]1C(=O)N[C@@H](CC(N)=O)C(=O)N[C@H]2C(=O)NC3C(=O)N[C@H](C(=O)N[C@H](C(=O)NCCC[N+](C)(C)C)c4cc(O)cc(O)c4-c4cc3ccc4O)[C@H](O)c3ccc(c(Cl)c3)Oc3cc2cc(c3OC2OC(CO)C(O)[C@H](O)[C@@H]2O[C@H]2CC(C)(NCc3ccc(-c4ccc(Cl)cc4)cc3)[C@H](O)[C@H](C)O2)Oc2ccc(cc2Cl)[C@H]1O (single isomer, unassigned) [Compound 4, C1-CBP-vancomycin]",more potent than vancomycin,[1],about 1000 fold
same,bacterial cell membrane permeabilization,[2],pronounced membrane permeabilization
same,MIC,[3],0.25 µg/mL
same,MIC,[4]; [20],0.5 µg/mL
same,terminal half-life (t1/2),[5],300 min
same,AUC,[5]; [21],81100 ng·h/mL
same,CL,[5]; [21],2 mL/min/kg
same,Cmax,[5]; [21],14.1 µg/mL
same,Vd,[5]; [21],1.25 L/kg
same,t1/2,[5]; [21],420 min
same,tmax,[5]; [21],30 min
same,AUC,[5]; 50 mg/kg,430000 ng·h/mL
same,CL,[5]; 50 mg/kg,2 mL/min/kg
same,Cmax,[5]; 50 mg/kg,58.9 µg/mL
same,Vd,[5]; 50 mg/kg,1.04 L/kg
same,t1/2,[5]; 50 mg/kg,372 min
same,AUC,"[6]; female, CD-1, mouse, in vivo",48400 ng·h/mL
same,Cmax,"[6]; female, CD-1, mouse, in vivo",14.5 µg/mL
same,Vd,"[6]; female, CD-1, mouse, in vivo",0.64 L/kg
same,clearance,"[6]; female, CD-1, mouse, in vivo",2 mL/min/kg
same,half-life,"[6]; female, CD-1, mouse, in vivo",306 min
same,tmax,"[6]; female, CD-1, mouse, in vivo",4.8 min
same,MRTlNF—obs,[6]; mice,336 min
same,Vd,"[6]; mice, this study",(0.64) L/kg
same,MTD,[7],50 mg/kg
"CN[C@H](CC(C)C)C(=O)N[C@H]1C(=O)N[C@@H](CC(N)=O)C(=O)N[C@H]2C(=O)N[C@H]3C(=O)N[C@H](C(=O)N[C@H](C(=O)O)c4cc(O)cc(O)c4-c4cc3ccc4O)[C@H](O)c3ccc(c(Cl)c3)Oc3cc2cc(c3O[C@@H]2O[C@H](CO)[C@@H](O)[C@H](O)[C@H]2O[C@H]2C[C@](C)(N)[C@H](O)[C@H](C)O2)Oc2ccc(cc2Cl)[C@H]1O [Compound 1, vancomycin]",MIC,"[8]; Staphylococcus aureus, ATCC25923, read-out: MIC, Sensitive S. aureus ATCC 25923",0.5 µg/mL
same,bacterial cell membrane permeabilization,[9],no permeabilization
same,activity in the VRSA thigh infection model,[10],inactive
same,decrease of antimicrobial activity by added LTA,[11],no difference
same,MIC,"[11]; read-out: MIC, +LTA",250 µg/mL
same,MIC,"[11]; read-out: MIC, −LTA",250 µg/mL
same,MIC,[12],0.5 µg/mL
same,MIC,[13],8 µg/mL
same,MIC,"[14]; read-out: MIC, +LTA",250 µg/mL
same,MIC,"[14]; read-out: MIC, −LTA",250 µg/mL
same,MIC,[15],250 µg/mL
same,MIC,"[15]; Enterococcus faecium, read-out: MIC, VanA E. faecium TX2465",250 µg/mL
same,MIC,"[16]; Enterococcus faecalis, read-out: MIC, VanA E. faecalis BM 4166",250 µg/mL
same,MIC,[3],250 µg/mL
same,MIC,[4]; [20],250 µg/mL
same,terminal half-life (t1/2),[5],30 to 78 min
same,AUC,[5]; 10 mg/kg,21800 ng·h/mL
same,CL,[5]; 10 mg/kg,7.67 mL/min/kg
same,Cmax,[5]; 10 mg/kg,62.8 µg/mL
same,Vd,[5]; 10 mg/kg,0.34 L/kg
same,t1/2,[5]; 10 mg/kg,31.2 min
same,tmax,[5]; 10 mg/kg,4.98 min
same,AUC,[5]; 300 mg/kg,935000 ng·h/mL
same,CL,[5]; 300 mg/kg,5.33 mL/min/kg
same,Cmax,[5]; 300 mg/kg,1665 µg/mL
same,Vd,[5]; 300 mg/kg,0.62 L/kg
same,t1/2,[5]; 300 mg/kg,81 min
same,tmax,[5]; 300 mg/kg,4.98 min
same,MIC,"[17]; Enterococcus faecalis, ATCCBAA2573, read-out: MIC, VanA E. faecalis ATCC BAA-2573",125 µg/mL
same,MTD,[7],300 mg/kg
"CN[C@H](CC(C)C)C(=O)N[C@H]1C(=O)N[C@@H](CC(N)=O)C(=O)N[C@H]2C(=O)NC3C(=O)N[C@H](C(=O)N[C@H](C(=O)NCCC[N+](C)(C)C)c4cc(O)cc(O)c4-c4cc3ccc4O)[C@H](O)c3ccc(c(Cl)c3)Oc3cc2cc(c3OC2OC(CO)C(O)[C@H](O)[C@@H]2O[C@H]2CC(C)(N)[C@H](O)[C@H](C)O2)Oc2ccc(cc2Cl)[C@H]1O (stereo partly shown) [Compound 3, C1-vancomycin]","MIC, VanA E. faecium ATCC BAA-2317",[18],31 µg/mL
same,bacterial cell membrane permeabilization,[2],weaker
same,MIC,[3],63 µg/mL
same,MIC,[4]; [20],31 µg/mL
same,"MIC, VanA E. faecalis BM 4166",[19],63 µg/mL
"CN[C@H](CC(C)C)C(=O)N[C@H]1C(=O)N[C@@H](CC(N)=O)C(=O)N[C@H]2C(=O)NC3C(=O)N[C@H](C(=O)N[C@H](C(=O)NCc4ccc(NC(=N)N)cc4)c4cc(O)cc(O)c4-c4cc3ccc4O)[C@H](O)c3ccc(c(Cl)c3)Oc3cc2cc(c3OC2OC(CO)C(O)[C@H](O)[C@@H]2O[C@H]2CC(C)(N)[C@H](O)[C@H](C)O2)Oc2ccc(cc2Cl)[C@H]1O (stereo partly shown) [Compound 9, GBn-vancomycin]","MIC, Sensitive S. aureus ATCC 25923",[8],0.25 µg/mL
same,"MIC, +LTA","[11]; E. faecalis BM 4166, LTA 100 μg/mL",16 µg/mL
same,"MIC, −LTA","[11]; E. faecalis BM 4166, no LTA",16 µg/mL
same,"MIC, MRSA S. aureus ATCC 43300",[12],0.12 µg/mL
same,"MIC, VanB E. faecalis ATCC 51299",[13],8 µg/mL
same,"MIC, +LTA","[14]; E. faecium ATCC BAA-2317, LTA 100 μg/mL",4 µg/mL
same,"MIC, −LTA","[14]; E. faecium ATCC BAA-2317, no LTA (0 μg/mL)",4 µg/mL
same,"MIC, VanA E. faecium TX2465",[15],8 µg/mL
same,"MIC, VanA E. faecalis BM 4166",[16],16 µg/mL
same,"MIC, VanA E. faecium ATCC BAA-2317",[4],4 µg/mL
same,"MIC, VanA E. faecalis ATCC BAA-2573",[17],4 µg/mL
"CN[C@H](CC(C)C)C(=O)N[C@H]1C(=O)N[C@@H](CC(N)=O)C(=O)N[C@H]2C(=O)N[C@H]3C(=O)N[C@H](C(=O)N[C@H](C(=O)NCc4ccc(NC(=N)N)cc4)c4cc(O)cc(O)c4-c4cc3ccc4O)[C@H](O)c3ccc(c(Cl)c3)Oc3cc2cc(c3OC2OC(CO)C(O)[C@H](O)C2O[C@H]2CC(C)(NCc3ccc(-c4ccc(Cl)cc4)cc3)[C@H](O)[C@H](C)O2)Oc2ccc(cc2Cl)[C@H]1O (stereo partly shown) [Compound 19, GBn-CBP-vancomycin]",MIC,"[8]; Staphylococcus aureus, ATCC25923; read-out: MIC, Sensitive S. aureus ATCC 25923",0.04 µg/mL
same,bacterial cell membrane permeabilization,[9],strong membrane permeabilization
same,decrease of antimicrobial activity by added LTA,[11],8 fold
same,MIC,"[11]; read-out: MIC, +LTA",5 µg/mL
same,MIC,"[11]; read-out: MIC, −LTA",0.6 µg/mL
same,MIC,[12],0.02 µg/mL
same,MIC,[13],0.04 µg/mL
same,MIC,"[14]; read-out: MIC, +LTA",2.5 µg/mL
same,MIC,"[14]; read-out: MIC, −LTA",0.3 µg/mL
"CN[C@H](CC(C)C)C(=O)N[C@H]1C(=O)N[C@@H](CC(N)=O)C(=O)N[C@H]2C(=O)N[C@H]3C(=O)N[C@H](C(=O)N[C@H](C(=O)O)c4cc(O)c(CN[C@@H](CCCNC(=N)N)C(=O)OC)c(O)c4-c4cc3ccc4O)[C@H](O)c3ccc(c(Cl)c3)Oc3cc2cc(c3OC2OC(CO)C(O)[C@H](O)C2O[C@H]2CC(C)(N)[C@H](O)[C@H](C)O2)Oc2ccc(cc2Cl)[C@H]1O (stereo partly shown) [Compound 27, Arg(OMe)^Ar-vancomycin]",less potent compared with Arg(OMe)-vancomycin (Compound 10),[1]; resistant organisms,≤ 8 fold
same,MIC,"[15]; Enterococcus faecium; read-out: MIC, VanA E. faecium TX2465",63 µg/mL
same,MIC,"[16]; Enterococcus faecalis; read-out: MIC, VanA E. faecalis BM 4166",31 µg/mL
same,MIC,"[4]; Enterococcus faecium, ATCCBAA2317; read-out: MIC, VanA E. faecium ATCC BAA-2317",8 µg/mL
same,MIC,"[17]; Enterococcus faecalis, ATCCBAA2573; read-out: MIC, VanA E. faecalis ATCC BAA-2573",16 µg/mL
